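1) Cells in 96-well plates. 2) Compound, 48 h, 5 concentrations. 3) Linear interpolation between surrounding doses. 4) Unreached endpoint = highest concentration. Abbreviation: GI50, concentration required for 50% inhibition of growth.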 Active and inactive are the calls of the source. No stated cut-off is given here; in the data, active = GI50 up to about 1.1 µM and inactive = higher.
Columns and labels:
Assay in all cases: NCI-60 cell line screen, 48 h
ACHN = test system: ACHN
UACC-62 = test system: UACC-62
M14 = test system: M14
OVCAR-3 = test system: OVCAR-3
Hs-578T = test system: Hs-578T
Malme-3M = test system: Malme-3M
SK-MEL-2 = test system: SK-MEL-2
PC-3 = test system: PC-3
HT-29 = test system: HT-29
DU-145 = test system: DU-145
MOLT-4 = test system: MOLT-4
SK-MEL-28 = test system: SK-MEL-28
HCC 2998 = test system: HCC 2998
MDA-MB-231 = test system: MDA-MB-231
CCRF-CEM = test system: CCRF-CEM
U-251 = test system: U-251
HL-60 = test system: HL-60
KM12 = test system: KM12
786-0 = test system: 786-0
MDA-N = test system: MDA-N

Row | Structure (SMILES) | GI50 (ACHN) | GI50 (UACC-62) | GI50 (M14) | GI50 (OVCAR-3) | GI50 (Hs-578T) | GI50 (Malme-3M) | GI50 (SK-MEL-2) | GI50 (PC-3) | GI50 (HT-29) | GI50 (DU-145) | GI50 (MOLT-4) | GI50 (SK-MEL-28) | GI50 (HCC 2998) | GI50 (MDA-MB-231) | GI50 (CCRF-CEM) | GI50 (U-251) | GI50 (HL-60) | GI50 (KM12) | GI50 (786-0) | GI50 (MDA-N)
1 | NC(=O)c1ncn2c1CNC(=O)C2 | > 100 µM (inactive) | > 100 µM (inactive) | > 100 µM (inactive) | > 100 µM (inactive) | > 100 µM (inactive) | > 100 µM (inactive) | > 100 µM (inactive) | > 100 µM (inactive) | > 100 µM (inactive) | > 100 µM (inactive) | > 100 µM (inactive) | > 100 µM (inactive) | > 100 µM (inactive) | > 100 µM (inactive) | > 100 µM (inactive) | > 100 µM (inactive) | > 100 µM (inactive) | > 100 µM (inactive) | – | –
2 | O=C1CC(c2cccc(Cl)c2)Oc2ccccc21 (stereo not given) | 16.2 µM (inactive) | 14.9 µM (inactive) | 18.1 µM (inactive) | – | 23.6 µM (inactive) | – | 19.9 µM (inactive) | 15.7 µM (inactive) | 17.5 µM (inactive) | 17.7 µM (inactive) | – | 18.6 µM (inactive) | 15.4 µM (inactive) | 34.5 µM (inactive) | 10.1 µM (inactive) | 25.5 µM (inactive) | 11.1 µM (inactive) | 15.7 µM (inactive) | 16.7 µM (inactive) | –
3 | Cc1[nH]c(=O)nc(NCCNCCO)c1C(=O)Nc1c2ccccc2nc2ccccc12 | > 100 µM (inactive) | > 100 µM (inactive) | > 100 µM (inactive) | > 100 µM (inactive) | – | > 100 µM (inactive) | > 100 µM (inactive) | > 100 µM (inactive) | > 100 µM (inactive) | > 100 µM (inactive) | > 100 µM (inactive) | > 100 µM (inactive) | > 100 µM (inactive) | > 100 µM (inactive) | > 100 µM (inactive) | > 100 µM (inactive) | > 100 µM (inactive) | > 100 µM (inactive) | > 100 µM (inactive) | > 100 µM (inactive)
4 | C(=N\c1ccc(-c2nc3ccccc3o2)cc1)/c1ccco1 | 49.7 µM (inactive) | – | 79.6 µM (inactive) | – | – | 82.2 µM (inactive) | 87.1 µM (inactive) | 55.7 µM (inactive) | 63.5 µM (inactive) | 75 µM (inactive) | 29 µM (inactive) | > 100 µM (inactive) | – | – | – | – | – | – | 75.2 µM (inactive) | 64 µM (inactive)
5 | S=C(NN=C1NCCCCN1)Nc1ccccc1 | 28.9 µM (inactive) | > 100 µM (inactive) | 31.7 µM (inactive) | 40.4 µM (inactive) | – | > 100 µM (inactive) | – | 45.7 µM (inactive) | 23 µM (inactive) | > 100 µM (inactive) | 25.5 µM (inactive) | 35.5 µM (inactive) | > 100 µM (inactive) | > 100 µM (inactive) | 19.8 µM (inactive) | 36.3 µM (inactive) | 14.6 µM (inactive) | 37.2 µM (inactive) | 39 µM (inactive) | 98.4 µM (inactive)
6 | Nc1cccc(S(=O)(=O)Nc2nnc(S(N)(=O)=O)s2)c1 | > 100 µM (inactive) | > 100 µM (inactive) | > 100 µM (inactive) | > 100 µM (inactive) | – | > 100 µM (inactive) | > 100 µM (inactive) | > 100 µM (inactive) | > 100 µM (inactive) | > 100 µM (inactive) | > 100 µM (inactive) | > 100 µM (inactive) | > 100 µM (inactive) | > 100 µM (inactive) | – | > 100 µM (inactive) | > 100 µM (inactive) | > 100 µM (inactive) | > 100 µM (inactive) | –
7 | CC[C@@]1(O)C(=O)OCc2c1cc1n(c2=O)Cc2cc3cc(OC)ccc3nc2-1 | 0.00476 µM (active) | 0.00244 µM (active) | 0.00718 µM (active) | 0.435 µM (active) | – | 0.255 µM (active) | 0.16 µM (active) | 0.0364 µM (active) | 0.0268 µM (active) | 0.00439 µM (active) | 0.00458 µM (active) | 0.372 µM (active) | 0.0276 µM (active) | 0.0843 µM (active) | 0.00457 µM (active) | 0.00407 µM (active) | 0.018 µM (active) | 0.139 µM (active) | 0.00923 µM (active) | 0.142 µM (active)
8 | Oc1ccccc1/C=N/c1ccc(Oc2ccc(Cl)cc2)c(Cl)c1 | 30.3 µM (inactive) | 24.9 µM (inactive) | 18.5 µM (inactive) | 15 µM (inactive) | 19.7 µM (inactive) | 19.5 µM (inactive) | 13.6 µM (inactive) | 20.9 µM (inactive) | 19.5 µM (inactive) | 81.8 µM (inactive) | 30.1 µM (inactive) | 25 µM (inactive) | 18.5 µM (inactive) | 16.1 µM (inactive) | 12.4 µM (inactive) | 21.2 µM (inactive) | 17.9 µM (inactive) | 23.8 µM (inactive) | 26 µM (inactive) | –
9 | O=C(CSc1nc2ccc(I)cc2c(=O)n1Cc1ccccc1)NN1C(=O)CSC1c1ccccc1 (stereo not given) | 18.2 µM (inactive) | 19.3 µM (inactive) | 29.5 µM (inactive) | 16.1 µM (inactive) | – | – | 24.3 µM (inactive) | 32.2 µM (inactive) | 35 µM (inactive) | 26.4 µM (inactive) | 29.2 µM (inactive) | 30.2 µM (inactive) | 21.5 µM (inactive) | 26.9 µM (inactive) | 29.2 µM (inactive) | 29.6 µM (inactive) | 4.68 µM (inactive) | 22.5 µM (inactive) | 38.3 µM (inactive) | 35.7 µM (inactive)
10 | O=C1N=C2N=C(c3ccc(Cl)cc3)N(c3ccc(Cl)cc3)N2Sc2ccccc21 | > 100 µM (inactive) | > 100 µM (inactive) | > 100 µM (inactive) | > 100 µM (inactive) | – | > 100 µM (inactive) | > 100 µM (inactive) | – | > 100 µM (inactive) | – | > 100 µM (inactive) | > 100 µM (inactive) | > 100 µM (inactive) | – | > 100 µM (inactive) | 23.5 µM (inactive) | > 100 µM (inactive) | 83.9 µM (inactive) | > 100 µM (inactive) | –
11 | COP(=O)(CP(=O)(OC)OCCC(C)CCC=C(C)C)OC (stereo not given) | > 100 µM (inactive) | – | > 100 µM (inactive) | > 100 µM (inactive) | – | > 100 µM (inactive) | > 100 µM (inactive) | > 100 µM (inactive) | – | – | > 100 µM (inactive) | > 100 µM (inactive) | > 100 µM (inactive) | 19.1 µM (inactive) | > 100 µM (inactive) | 26.7 µM (inactive) | – | > 100 µM (inactive) | > 100 µM (inactive) | > 100 µM (inactive)
12 | CCOC(=O)[C@H](Cc1ccccc1)NC(=O)c1nc[nH]c1[N+](=O)[O-] | > 100 µM (inactive) | > 100 µM (inactive) | > 100 µM (inactive) | > 100 µM (inactive) | – | > 100 µM (inactive) | > 100 µM (inactive) | – | > 100 µM (inactive) | – | > 100 µM (inactive) | > 100 µM (inactive) | > 100 µM (inactive) | – | > 100 µM (inactive) | > 100 µM (inactive) | > 100 µM (inactive) | > 100 µM (inactive) | > 100 µM (inactive) | –

Source: ChEMBL document CHEMBL1201862, “PubChem BioAssay data set” (2004)
